Publication PMC4647570, “Ketoreductase TpdE from Rhodococcus jostii TMP1: characterization and application in the synthesis of chiral alcohols” (PeerJ, 2015)

tested on: T1, TpdE; assay: NADPH oxidation at […] nm, Michaelis-Menten fit; type: biochemical, Rhodococcus jostii; conditions: 0.2 mM NADPH, 50 mM phosphate pH 7.2, 30 °C; apparent
T1 construct: C-terminal His6 tag, pET-tpdE in E. coli BL21 (DE3), Ni-chelating column, ~30 kDa on SDS-PAGE; residues T15, G16, G20, G22, N119, S148, Y161, K165

SMILES | Km
CCCCC(=O)C(C)=O [2,3-Heptanedione] | 6.9 ± 0.9 mM
CC(=O)C(C)(C)O [3-Hydroxy-3-methyl-2-butanone] | 14.6 ± 4 mM
CC(=O)C(C)S (stereo not drawn) [3-Mercapto-2-butanone] | 14.4 ± 4.8 mM
CC(=O)C(C)O (stereo not drawn) [Acetoin] | 5 ± 0.3 mM
CCCC(=O)OC(C)C(C)=O (stereo not drawn) [Butan-3-one-2-yl-butanoate] | 0.76 ± 0.1 mM
CC(=O)C(C)=O [Diacetyl] | 1.9 ± 0.3 mM

Next, values leading:

Km | SMILES
2.2 ± 0.4 mM | CCCC(=O)C(C)=O [2,3-Hexanedione]
0.98 ± 0.2 mM | CCC(=O)C(C)=O [2,3-Pentanedione]
3.3 ± 0.6 mM | CCC(=O)C(=O)CC [3,4-Hexanedione]
